Laboratory results published in the supplement of paper PMC11208160.

Experiment: recombinant barcode read abundance after kanamycin selection (control-corrected) (log10(CPM+1)); higher = more efficient recombination; sequences stand for … in AGTGCAGAGAAAATCGGCCAGTTTTCTCTGCCTGCAGTCCGCATGCCGT…AGATTTATGCAGCGGACTGCCTTTCTCCCAAAGTGATAAACCGGACAGTATCATGGACCGGTTTTCCCGGTAATCCGTATTTGCAAGGTTGGTTTCACT; site = the 11-nt target
In short: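 IS621 bridge RNA target-binding loops were paired with targets in a pooled library tested in E. coli. After co-electroporation with a donor plasmid, cells were plated in two replicates on chloramphenicol/ampicillin LB agar (control) and on chloramphenicol/ampicillin/kanamycin carrying 0.1 mM IPTG. Barcodes at recombinant junctions were counted as counts per million, averaged and control-corrected to give recombination efficiency. Values are log10(CPM+1).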
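Also: IS621 recombinase and bridge RNA in Escherichia coli cells.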

Sequence | recombinant barcode read abundance (log10)
GAGTAGTCTTGGGTTCTAACCTGTTGCTT (site GAGTAGTCTAA) | 2.05
GAGTCGTCTTGGGTTCTAACCTGTTGCTT (site GAGCCATCTAA) | 0.402
GAGTCGTCTTGGGTTCTAACCTGTTGCTT (site GAGTCGTCTAA) | 1.45
GAGTGAACTTGGGTTCTAACCTGTTGCCA (site GAGTGAACTTG) | 0.849
GAGTGAACTTGGGTTCTAACCTGTTGCCA (site GTGTGTACTTG) | 0.435
GAGTGCCCTTGGGTTCTAACCTGTTGCTT (site GAGTGCCCTAA) | 0.78
GAGTGCCCTTGGGTTCTAACCTGTTGCTT (site GTGTGGCCTAA) | 0.128
GAGTGGCCTTGGGTTCTAACCTGTTGCAT (site GAGTGGCCTAA) | 0.242
GAGTGGCCTTGGGTTCTAACCTGTTGCAT (site GAGTGGCCTAC) | 0.385
GAGTGGCCTTGGGTTCTAACCTGTTGCAT (site GAGTGGCCTAG) | 0.318
GAGTGGCCTTGGGTTCTAACCTGTTGCAT (site GAGTGGCCTAT) | 0.883
GAGTGGCCTTGGGTTCTAACCTGTTGCGG (site GAGTAGCCTCC) | 0.831
GAGTGGCCTTGGGTTCTAACCTGTTGCGG (site GAGTCGCCTCC) | 0.0473
GAGTGGCCTTGGGTTCTAACCTGTTGCGG (site GAGTGGCCTCC) | 1.84
GAGTGGCCTTGGGTTCTAACCTGTTGCGG (site GAGTTGCCTCC) | 0.00446
GAGTGGCCTTGGGTTCTAACCTGTTGCTT (site GAGTGGCCTAA) | 1.54
GAGTGGCCTTGGGTTCTAACCTGTTGCTT (site GAGTGGCCTAC) | 0.494
GAGTGGCCTTGGGTTCTAACCTGTTGCTT (site GAGTGGCCTAG) | 0.068
GAGTGGCCTTGGGTTCTAACCTGTTGCTT (site GAGTGGCCTAT) | 0.541
GAGTTACCTTGGGTTCTAACCTGTTGCGT (site GAGTTACCTAC) | 2.6
GAGTTACCTTGGGTTCTAACCTGTTGCGT (site GAGTTCCCTAC) | 0.192
GAGTTACCTTGGGTTCTAACCTGTTGCGT (site GAGTTGCCTAC) | 0.229
GAGTTACCTTGGGTTCTAACCTGTTGCGT (site GAGTTTCCTAC) | 0.0625
GAGTTCACTTGGGTTCTAACCTGTTGCCT (site GAGTTCACTAG) | 0.618
GAGTTCACTTGGGTTCTAACCTGTTGCCT (site GGGTTCACTCG) | 0.0995
GAGTTCGCTTGGGTTCTAACCTGTTGCGG (site GAGTTCGCTCC) | 1.08

Sequence | recombinant barcode read abundance (log10)
GAGTTCGCTTGGGTTCTAACCTGTTGCGG (site TAGTCCGCTCC) | 0
GAGTTGTCTTGGGTTCTAACCTGTTGCGG (site CTCGCCACTAG) | 0.0798
GAGTTGTCTTGGGTTCTAACCTGTTGCGG (site GAGTTGTCTCC) | 1.83
GATAACGCTTGGGTTCTAACCTGTTGCCT (site ATGGTACCTTA) | 0.0115
GATAACGCTTGGGTTCTAACCTGTTGCCT (site GATAACGCTAG) | 1.05
GATACGCCTTGGGTTCTAACCTGTTGCCT (site GATACGACTAG) | 0.0197
GATACGCCTTGGGTTCTAACCTGTTGCCT (site GATACGCCTAG) | 0.134
GATACGCCTTGGGTTCTAACCTGTTGCCT (site GATACGGCTAG) | 0.167
GATACGCCTTGGGTTCTAACCTGTTGCCT (site GATACGTCTAG) | 0.139
GATACGTCTTGGGTTCTAACCTGTTGCCT (site GATACGACTAG) | 0.352
GATACGTCTTGGGTTCTAACCTGTTGCCT (site GATACGCCTAG) | 0.187
GATACGTCTTGGGTTCTAACCTGTTGCCT (site GATACGGCTAG) | 0.195
GATACGTCTTGGGTTCTAACCTGTTGCCT (site GATACGTCTAG) | 0.623
GATAGAACTTGGGTTCTAACCTGTTGCTT (site GAGAGGACTAA) | 0.204
GATAGAACTTGGGTTCTAACCTGTTGCTT (site GATAGAACTAA) | 0.94
GATAGGACTTGGGTTCTAACCTGTTGCCT (site GATAGGACTAG) | 0.647
GATAGGACTTGGGTTCTAACCTGTTGCCT (site GATGGGACTCG) | 0
GATATAGCTTGGGTTCTAACCTGTTGCCT (site GATAGAGCTCG) | 0.54
GATATAGCTTGGGTTCTAACCTGTTGCCT (site GATATAGCTAG) | 1.06
GATCAACCTTGGGTTCTAACCTGTTGCCT (site GATCAACCTAG) | 1.62
GATCAACCTTGGGTTCTAACCTGTTGCCT (site GCTCAACCTAG) | 0.0583
GATCAACCTTGGGTTCTAACCTGTTGCCT (site GGTCAACCTAG) | 0.0197
GATCAACCTTGGGTTCTAACCTGTTGCCT (site GTTCAACCTAG) | 0.235
GATCACCCTTGGGTTCTAACCTGTTGCAT (site CGAGTGTCTTA) | 0.193
GATCACCCTTGGGTTCTAACCTGTTGCAT (site GATCACCCTAT) | 1.68
GATCGATCTTGGGTTCTAACCTGTTGCAT (site GATCGATCTAA) | 0.0308

Sequence | recombinant barcode read abundance (log10)
GATCGATCTTGGGTTCTAACCTGTTGCAT (site GATCGATCTAC) | 0.163
GATCGATCTTGGGTTCTAACCTGTTGCAT (site GATCGATCTAG) | 0.307
GATCGATCTTGGGTTCTAACCTGTTGCAT (site GATCGATCTAT) | 0.666
GATGAGACTTGGGTTCTAACCTGTTGCCG (site GATGAGACTCG) | 2.22
GATGAGACTTGGGTTCTAACCTGTTGCCG (site GCTGAGACTCG) | 0.223
GATGAGTCTTGGGTTCTAACCTGTTGCCT (site GATGAGTCTAA) | 0.71
GATGAGTCTTGGGTTCTAACCTGTTGCCT (site GATGAGTCTAG) | 1.9
GATGCCTCTTGGGTTCTAACCTGTTGCCT (site GAAGCATCTAG) | 0.147
GATGCCTCTTGGGTTCTAACCTGTTGCCT (site GATGCCTCTAG) | 2.06
GATGCGACTTGGGTTCTAACCTGTTGCCG (site GATGCGACTCG) | 0.968
GATGCGACTTGGGTTCTAACCTGTTGCCG (site GATGTGACTAG) | 0.121
GATGCTACTTGGGTTCTAACCTGTTGCCA (site GATCCTACTTG) | 0.124
GATGCTACTTGGGTTCTAACCTGTTGCCA (site GATGCTACTTG) | 0.0236
GATGCTTCTTGGGTTCTAACCTGTTGCTT (site AATGCTTCTAA) | 0.101
GATGCTTCTTGGGTTCTAACCTGTTGCTT (site GATGCTTCTAA) | 0.223
GATGGACCTTGGGTTCTAACCTGTTGCTA (site ATGTCTGCTAG) | 0.0118
GATGGACCTTGGGTTCTAACCTGTTGCTA (site GATGGACCTTA) | 2.39
GATGGCCCTTGGGTTCTAACCTGTTGCCT (site GATGGCCCTAG) | 1.23
GATGGCCCTTGGGTTCTAACCTGTTGCCT (site GCTGGCCCTAG) | 0.103
GATGGCCCTTGGGTTCTAACCTGTTGCCT (site GGTGGCCCTAG) | 0.113
GATGGCCCTTGGGTTCTAACCTGTTGCCT (site GTTGGCCCTAG) | 0.127
GATGGGCCTTGGGTTCTAACCTGTTGCGT (site GATGGGCCTAC) | 2.54
GATGGGCCTTGGGTTCTAACCTGTTGCGT (site GCTGGGCCTTC) | 0.246
GATGTACCTTGGGTTCTAACCTGTTGCCT (site AATGTACCTAG) | 0.984
GATGTACCTTGGGTTCTAACCTGTTGCCT (site CATGTACCTAG) | 0.43
